According to ChEMBL document CHEMBL5247643, “Discovery and Characterization of BAY-805, a Potent and Selective Inhibitor of Ubiquitin-Specific Protease USP21” (J Med Chem, 2023):
Activity calls are given as the source filed them. The rule behind the calls is not given here.

What was measured:
[1] = target: Ubiquitin carboxyl-terminal hydrolase 9X (Homo sapiens) (UniProt Q93008); test: Inhibition of human USP9X (1551 to 1970 residues) expressed in Escherichia coli BL21 (DE3) using ubiquitin rhodamine 110 as substrate assessed as remaining enzyme activity at 10 to 50 uM by fluorometric assay; conditions: dose 10-50 µM
[2] = target: T1, Ubiquitin carboxyl-terminal hydrolase 8 (Homo sapiens) (UniProt P40818); test: Inhibition of human USP8 (734 to 1110 residues) expressed in Escherichia coli BL21 (DE3) using ubiquitin rhodamine 110 as substrate assessed as remaining enzyme activity at 10 to 50 uM by fluorometric assay; conditions: dose 10-50 µM
T1 sequence (whole entry): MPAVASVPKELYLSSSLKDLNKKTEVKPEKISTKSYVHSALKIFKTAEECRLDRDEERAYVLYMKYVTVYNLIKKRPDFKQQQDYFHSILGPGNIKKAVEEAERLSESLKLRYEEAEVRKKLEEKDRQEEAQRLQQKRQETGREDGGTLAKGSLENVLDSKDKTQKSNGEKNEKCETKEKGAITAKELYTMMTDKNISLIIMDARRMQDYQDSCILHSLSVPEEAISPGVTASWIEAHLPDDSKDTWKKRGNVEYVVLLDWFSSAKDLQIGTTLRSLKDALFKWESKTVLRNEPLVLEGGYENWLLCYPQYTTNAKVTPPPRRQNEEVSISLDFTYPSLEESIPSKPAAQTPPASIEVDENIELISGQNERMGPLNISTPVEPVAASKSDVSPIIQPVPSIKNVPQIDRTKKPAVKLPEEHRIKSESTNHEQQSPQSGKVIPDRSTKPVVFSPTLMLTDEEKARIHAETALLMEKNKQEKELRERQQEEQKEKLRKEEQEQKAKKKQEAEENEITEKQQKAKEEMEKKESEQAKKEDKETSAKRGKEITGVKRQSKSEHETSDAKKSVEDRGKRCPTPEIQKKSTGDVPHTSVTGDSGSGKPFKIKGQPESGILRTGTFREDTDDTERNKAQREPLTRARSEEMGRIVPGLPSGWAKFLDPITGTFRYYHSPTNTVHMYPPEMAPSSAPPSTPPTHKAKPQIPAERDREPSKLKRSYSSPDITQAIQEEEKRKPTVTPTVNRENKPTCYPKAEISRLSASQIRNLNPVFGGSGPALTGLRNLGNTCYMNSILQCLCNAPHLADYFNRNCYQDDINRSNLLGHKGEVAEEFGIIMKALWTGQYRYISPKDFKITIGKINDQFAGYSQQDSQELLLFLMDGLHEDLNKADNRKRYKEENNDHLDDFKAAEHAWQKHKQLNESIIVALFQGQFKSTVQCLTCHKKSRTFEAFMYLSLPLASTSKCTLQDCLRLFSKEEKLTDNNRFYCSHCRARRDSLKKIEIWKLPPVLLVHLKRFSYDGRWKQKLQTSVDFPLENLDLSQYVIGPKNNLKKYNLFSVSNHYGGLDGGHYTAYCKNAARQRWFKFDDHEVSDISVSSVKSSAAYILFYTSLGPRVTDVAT

[3] = target: Ubiquitin carboxyl-terminal hydrolase 7 (Homo sapiens) (UniProt Q93009); test: Inhibition of human USP7 (1 to 1102 residues) expressed in Sf9 cells using ubiquitin rhodamine 110 as substrate assessed as remaining enzyme activity at 10 to 50 uM by fluorometric assay; conditions: dose 10-50 µM
[4] = target: T2, Ubiquitin carboxyl-terminal hydrolase 5 (Homo sapiens) (UniProt P45974); test: Inhibition of human USP5 (1 to 835 residues) expressed in Sf9 cells using ubiquitin rhodamine 110 as substrate assessed as remaining enzyme activity at 10 to 50 uM by fluorometric assay; conditions: dose 10-50 µM
T2 sequence (whole entry): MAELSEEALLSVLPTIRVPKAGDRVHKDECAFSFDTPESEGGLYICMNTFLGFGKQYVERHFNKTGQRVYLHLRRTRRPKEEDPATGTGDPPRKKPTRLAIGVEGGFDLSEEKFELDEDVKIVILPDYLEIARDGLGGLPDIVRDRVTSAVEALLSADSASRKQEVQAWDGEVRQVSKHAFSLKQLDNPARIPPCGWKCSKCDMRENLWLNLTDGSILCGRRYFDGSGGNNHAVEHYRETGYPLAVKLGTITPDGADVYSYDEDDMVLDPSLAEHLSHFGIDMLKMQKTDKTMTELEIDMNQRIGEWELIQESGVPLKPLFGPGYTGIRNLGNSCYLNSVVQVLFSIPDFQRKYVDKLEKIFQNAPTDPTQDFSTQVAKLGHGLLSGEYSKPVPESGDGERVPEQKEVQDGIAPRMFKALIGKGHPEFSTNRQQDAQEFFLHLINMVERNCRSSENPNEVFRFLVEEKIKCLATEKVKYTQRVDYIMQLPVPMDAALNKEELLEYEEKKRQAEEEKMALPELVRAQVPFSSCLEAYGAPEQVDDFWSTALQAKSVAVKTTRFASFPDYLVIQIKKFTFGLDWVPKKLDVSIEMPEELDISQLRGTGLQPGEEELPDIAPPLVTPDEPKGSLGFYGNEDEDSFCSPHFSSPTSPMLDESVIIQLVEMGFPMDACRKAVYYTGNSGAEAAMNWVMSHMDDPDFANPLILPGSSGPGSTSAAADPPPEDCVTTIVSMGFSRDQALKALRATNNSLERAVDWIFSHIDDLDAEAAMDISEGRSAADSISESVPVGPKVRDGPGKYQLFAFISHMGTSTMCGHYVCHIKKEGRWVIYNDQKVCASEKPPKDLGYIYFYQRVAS

[5] = test system: MDA-MB-231; test: Antiproliferative activity against human MDA-MB-231 cells assessed as reduction in cell viability up to 30 uM incubated for 72 hrs by CellTiter-Glo luminescent assay; assay type: functional, cell-based
[6] = target: T2, Ubiquitin carboxyl-terminal hydrolase 5 (Homo sapiens); test: Inhibition of human USP5 using ubiquitin rhodamine 110 as substrate at 10 to 50 uM by fluorometric assay; conditions: dose 10-50 µM
[7] = test system: U2OS; test: Antiproliferative activity against human U2OS cells assessed as reduction in cell viability up to 30 uM incubated for 72 hrs by CellTiter-Glo luminescent assay; assay type: functional, cell-based
[8] = test system: Jurkat; test: Antiproliferative activity against human Jurkat cells assessed as reduction in cell viability up to 30 uM incubated for 72 hrs by CellTiter-Glo luminescent assay; assay type: functional, cell-based
[9] = test system: MOLM-13; test: Antiproliferative activity against human MOLM-13 cells assessed as reduction in cell viability up to 30 uM incubated for 72 hrs by CellTiter-Glo luminescent assay; assay type: functional, cell-based
[10] = target: T1, Ubiquitin carboxyl-terminal hydrolase 8 (Homo sapiens); test: Inhibition of human USP8 using ubiquitin rhodamine 110 as substrate at 10 to 50 uM by fluorometric assay; conditions: dose 10-50 µM

Sequence of Ubiquitin carboxyl-terminal hydrolase 9X (Homo sapiens) (Q93008 whole entry, the tested form may be a part): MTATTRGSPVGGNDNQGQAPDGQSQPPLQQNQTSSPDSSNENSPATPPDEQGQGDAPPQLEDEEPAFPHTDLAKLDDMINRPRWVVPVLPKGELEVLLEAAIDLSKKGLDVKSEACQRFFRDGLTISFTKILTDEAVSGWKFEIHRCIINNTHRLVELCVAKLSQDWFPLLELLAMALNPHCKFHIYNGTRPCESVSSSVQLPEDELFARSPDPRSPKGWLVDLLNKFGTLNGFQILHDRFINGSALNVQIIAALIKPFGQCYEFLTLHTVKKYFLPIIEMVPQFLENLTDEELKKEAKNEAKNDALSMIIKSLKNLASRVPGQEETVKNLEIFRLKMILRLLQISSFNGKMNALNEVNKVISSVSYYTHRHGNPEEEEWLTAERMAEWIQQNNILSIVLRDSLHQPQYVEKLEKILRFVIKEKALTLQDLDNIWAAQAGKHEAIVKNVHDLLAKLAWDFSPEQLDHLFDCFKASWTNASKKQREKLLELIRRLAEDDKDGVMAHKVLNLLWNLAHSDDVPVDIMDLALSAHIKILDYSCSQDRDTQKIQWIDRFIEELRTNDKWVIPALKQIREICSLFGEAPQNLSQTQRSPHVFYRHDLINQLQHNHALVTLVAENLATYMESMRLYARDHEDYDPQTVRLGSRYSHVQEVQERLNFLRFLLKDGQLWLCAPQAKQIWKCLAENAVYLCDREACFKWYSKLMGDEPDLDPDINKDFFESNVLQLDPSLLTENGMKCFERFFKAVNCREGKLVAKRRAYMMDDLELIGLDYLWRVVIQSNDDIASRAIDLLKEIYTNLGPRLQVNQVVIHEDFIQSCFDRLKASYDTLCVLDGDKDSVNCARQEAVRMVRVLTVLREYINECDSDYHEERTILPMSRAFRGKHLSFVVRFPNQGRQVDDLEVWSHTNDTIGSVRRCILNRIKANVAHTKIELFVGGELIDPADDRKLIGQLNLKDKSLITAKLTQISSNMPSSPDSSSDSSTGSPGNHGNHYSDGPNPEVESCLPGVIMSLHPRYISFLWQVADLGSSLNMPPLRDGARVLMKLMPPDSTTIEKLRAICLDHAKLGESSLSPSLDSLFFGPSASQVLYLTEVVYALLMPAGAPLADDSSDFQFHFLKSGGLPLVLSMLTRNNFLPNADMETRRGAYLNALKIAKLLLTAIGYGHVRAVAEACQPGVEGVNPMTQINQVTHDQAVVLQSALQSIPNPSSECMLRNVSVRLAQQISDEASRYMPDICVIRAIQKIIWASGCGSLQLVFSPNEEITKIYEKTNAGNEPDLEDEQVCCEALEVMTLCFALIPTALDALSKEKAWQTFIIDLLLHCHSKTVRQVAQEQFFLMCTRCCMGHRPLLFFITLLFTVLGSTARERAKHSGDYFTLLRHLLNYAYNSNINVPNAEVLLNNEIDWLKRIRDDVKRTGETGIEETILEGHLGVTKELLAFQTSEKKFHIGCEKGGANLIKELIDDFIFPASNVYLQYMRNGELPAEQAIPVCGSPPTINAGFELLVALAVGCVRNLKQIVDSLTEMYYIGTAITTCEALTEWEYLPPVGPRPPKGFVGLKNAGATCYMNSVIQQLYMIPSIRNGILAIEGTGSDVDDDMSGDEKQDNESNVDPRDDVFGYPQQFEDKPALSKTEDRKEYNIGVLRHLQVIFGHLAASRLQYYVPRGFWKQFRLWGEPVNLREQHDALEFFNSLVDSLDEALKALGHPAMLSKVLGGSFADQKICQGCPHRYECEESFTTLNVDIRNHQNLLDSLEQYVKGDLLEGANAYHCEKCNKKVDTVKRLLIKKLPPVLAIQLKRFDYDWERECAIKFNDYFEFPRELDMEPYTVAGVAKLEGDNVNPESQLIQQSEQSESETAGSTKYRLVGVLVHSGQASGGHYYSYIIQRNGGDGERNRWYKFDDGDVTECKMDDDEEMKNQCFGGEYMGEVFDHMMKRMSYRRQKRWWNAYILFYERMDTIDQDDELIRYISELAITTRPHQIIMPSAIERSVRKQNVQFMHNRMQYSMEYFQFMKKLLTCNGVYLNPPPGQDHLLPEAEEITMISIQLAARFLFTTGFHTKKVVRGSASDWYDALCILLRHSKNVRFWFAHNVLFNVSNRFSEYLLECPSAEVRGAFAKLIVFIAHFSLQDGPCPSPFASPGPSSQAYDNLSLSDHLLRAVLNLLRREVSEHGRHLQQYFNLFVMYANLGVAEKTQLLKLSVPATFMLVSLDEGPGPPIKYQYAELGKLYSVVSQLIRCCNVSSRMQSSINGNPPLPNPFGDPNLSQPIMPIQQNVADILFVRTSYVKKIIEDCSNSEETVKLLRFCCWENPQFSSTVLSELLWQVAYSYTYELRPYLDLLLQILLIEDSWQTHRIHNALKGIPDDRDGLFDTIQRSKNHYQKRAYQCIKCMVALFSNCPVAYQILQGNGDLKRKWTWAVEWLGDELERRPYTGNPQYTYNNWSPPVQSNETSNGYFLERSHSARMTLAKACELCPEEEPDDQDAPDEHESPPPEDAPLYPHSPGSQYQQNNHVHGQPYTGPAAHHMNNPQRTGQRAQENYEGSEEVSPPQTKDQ
Sequence of Ubiquitin carboxyl-terminal hydrolase 7 (Homo sapiens) (Q93009 whole entry, looked up, the tested form may be a part): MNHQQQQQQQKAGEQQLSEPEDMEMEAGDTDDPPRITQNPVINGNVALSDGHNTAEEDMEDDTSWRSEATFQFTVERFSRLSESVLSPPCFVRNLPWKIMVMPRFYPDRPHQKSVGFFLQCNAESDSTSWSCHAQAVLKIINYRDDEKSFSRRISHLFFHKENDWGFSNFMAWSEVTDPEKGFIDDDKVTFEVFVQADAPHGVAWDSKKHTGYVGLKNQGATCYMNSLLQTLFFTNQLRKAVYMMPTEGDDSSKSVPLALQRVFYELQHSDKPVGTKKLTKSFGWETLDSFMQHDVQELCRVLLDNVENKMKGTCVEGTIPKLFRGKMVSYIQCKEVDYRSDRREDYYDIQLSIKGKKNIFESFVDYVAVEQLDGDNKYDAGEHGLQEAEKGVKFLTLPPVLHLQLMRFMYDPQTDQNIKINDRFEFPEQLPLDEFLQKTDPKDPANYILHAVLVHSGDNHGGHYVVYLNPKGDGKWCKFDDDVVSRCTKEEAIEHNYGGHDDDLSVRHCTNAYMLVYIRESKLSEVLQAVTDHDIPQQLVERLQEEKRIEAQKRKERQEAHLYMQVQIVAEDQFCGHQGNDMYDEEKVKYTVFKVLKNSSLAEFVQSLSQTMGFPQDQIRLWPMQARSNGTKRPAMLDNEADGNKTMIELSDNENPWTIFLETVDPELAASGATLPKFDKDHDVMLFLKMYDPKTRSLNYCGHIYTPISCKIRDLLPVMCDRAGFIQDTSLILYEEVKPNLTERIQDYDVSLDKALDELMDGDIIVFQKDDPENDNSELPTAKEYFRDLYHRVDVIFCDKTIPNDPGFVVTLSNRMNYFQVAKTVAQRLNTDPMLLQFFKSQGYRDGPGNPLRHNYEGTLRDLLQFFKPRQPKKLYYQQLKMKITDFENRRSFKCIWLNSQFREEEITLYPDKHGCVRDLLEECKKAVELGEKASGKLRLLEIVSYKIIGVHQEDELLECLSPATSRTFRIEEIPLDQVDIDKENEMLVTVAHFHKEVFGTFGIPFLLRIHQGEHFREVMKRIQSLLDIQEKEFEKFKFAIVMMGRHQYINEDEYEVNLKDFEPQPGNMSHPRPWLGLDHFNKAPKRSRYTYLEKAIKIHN

Activity [1] [%]	Activity [2] [%]	Activity [3] [%]	Activity [4] [%]	inhibition [6]	inhibition [10]	SMILES	Activity [5]	Activity [7]	Activity [8]	Activity [9]
< 50	< 50	< 50	< 50	–	–	CC(NC(=O)C1CCCC1)C(=O)Nc1nnc(Cc2ccc([N+](=O)[O-])cc2)s1 (racemic)	–	–	–	–
–	–	–	–	inactive	inactive	CC(C)C[C@H](NC(=O)C1(C(F)(F)F)CCCCC1)C(=O)Nc1nnc(Cc2ccc(C#N)cc2)s1	inactive	inactive	inactive	inactive
